This note sets out measurements from US20230047816A1 (priority 2018, published 2023).

Assay [1] deals with mouse primary cortical neurons. Description: Apoptosis of neurons induced by NMDA and glutamate. Format: cell-based.
For assay [2], the system named is mouse primary cortical neurons. As to the kind of experiment: Lactate release (glycolysis) upon excitotoxic stimuli. Particulars: NMDA or glutamate 100 μM 10 minutes, then inhibitor 0.01 μM 24 hours. The assay is classed as cell-based. The method, then:
To directly test the ability of the PFKFB3 inhibitor, AZ67 and Compound 1, to protect against the damage caused by excitotoxic stimuli, mouse primary cortical neurons were subjected to a short-term exposure to NMDA or glutamate (100 μM for 10 minutes), a well-known excitotoxic stimuli (Almeida and Bolahos, 2001). For NMDAR activation, neurons at 8 days in vitro were incubated with 100 μM glutamate (plus 10 μM glycine) or 100 μM NMDA (plus 10 μM glycine) for 10 minutes. Neurons were then washed and further incubated in culture medium with the PFKFB3 inhibitors for 24 hours. A colorimetric NADP/NADPH assay kit (Abcam) was used. […] NADPH was determined in 200 μl of the supernatant, after heatinged […] 60° C. for 30 minutes to decompose NADP+. Actual NADP and NADPH+ concentrations were calculated by extrapolating values to a NADPH standard curve (0-100 pmol/well).
In view that this treatment causes PFKFB3 stabilization leading to glycolytic activation and PPP inhibition (Rodriguez-Rodriguez et al., 2012), we reasoned that PFKFB3 inhibition by AZ67 and Compound 1 could abrogate these effects. […] To directly test whether this effect is associated with the control of PFKFB3 on glycolysis, we next assessed the glycolytic-end product, lactate, released to the incubation medium.

Assay [3] has as its system mouse primary cortical neurons. Description: Apoptosis upon glutamate or NMDA (annexin V+/7AAD-). Format: cell-based. Particulars: for prevention of apoptotic neuronal death: inhibitor 0.01 μM. The method, then: (§1) To directly test the ability of the PFKFB3 inhibitor, AZ67 and Compound 1, to protect against the damage caused by excitotoxic stimuli, mouse primary cortical neurons were subjected to a short-term exposure to NMDA or glutamate (100 μM for 10 minutes), a well-known excitotoxic stimuli (Almeida and Bolahos, 2001). For NMDAR activation, neurons at 8 days in vitro were incubated with 100 μM glutamate (plus 10 μM glycine) or 100 μM NMDA (plus 10 μM glycine) for 10 minutes. Neurons were then washed and further incubated in culture medium with the PFKFB3 inhibitors for 24 hours. A colorimetric NADP/NADPH assay kit (Abcam) was used. Cells were resuspended in 500 μl of NADP/NADPH extraction buffer, vortexed and centrifuged at 14,000 rpm for 5 minutes to remove insoluble material. The supernatant was used for NADPH +plus NADP+ measurement. NADPH was determined in 200 μl of the supernatant, after heatinged […] 60° C. for 30 minutes to decompose NADP+. Actual NADP and NADPH+ concentrations were calculated by extrapolating values to a NADPH standard curve (0-100 pmol/well).
To show this, neurons were treated with glutamate of NMDA, and apoptosis assessed by annexin V+/7AAD− staining using flow cytometry, as described above.

A further assay deals with primary neurons. Description: Mitochondrial ROS in NMDA and glutamate excitotoxic models. Format: cell-based. The following applies: 0.01 μM, triggered by NMDA and glutamate, FIG. 4B.
The test system of assay [4] is mouse primary cortical neurons. As to the kind of experiment: Mitochondrial ROS (MitoSox) upon excitotoxic stimuli. Format: cell-based. The following applies: NMDA and glutamate excitotoxic models; inhibitor 0.01 μM. As for the experimental part:
as §1
Mitochondrial ROS was detected using the fluorescent probe MitoSox™ (Life Technologies). […] MitoSox™ fluorescence was assessed by flow cytometry and expressed in arbitrary units.

Assay [5] relates to neurons from Cln7 knock out (KO) mice. As to the kind of experiment: In vitro model of Batten disease, glycolytic flux. Particulars: 10 nM, 24 hours. Format: cell-based, mouse. The method, then: Primary cultures of C57BL/6J WT and Cln7Δex2 mice cortical neurons were prepared from fetal animals of 14.5 days of gestation, seeded at 1.8·10^5 cells/cm2 in plastic plates coated with poly-D-lysine […] and incubated in Neurobasal (Life Technologies) supplemented with 2 mM glutamine, 5 mM of glucose, 0.25 mM pyruvate and 2% B27 supplement (Life Technologies). Cells were incubated at 37° C. in a humidified 5% CO2-containing atmosphere. At 72 hours after plating, medium was replaced using Neurobasal (Life Technologies) supplemented with 2 mM glutamine, 5 mM glucose, 0.25 mM pyruvate and 2% B27 supplement (Life Technologies) minus antioxidants (MAO; i.e., lacking vitamin E, vitamin E acetate, superoxide dismutase, catalase, and glutathione). Six days after the plating medium was replaced again. Cells were used at day 9.
Glycolytic flux was measured in 8 cm2 flasks of adherent cells at 60-70% confluence containing a central microcentrifuge tube with 1 ml H2O for 3H2O equilibration. […]. […] Glycolytic flux was measured by assaying the rate of 3H2O production from [3-3H]glucose by incubating cells with 5μ Ci D-[3-3H]glucose in KRPG buffer per flask for 120 min, as previously described [Vicente-Gutierrez, C. et al. Astrocytic mitochondrial ROS modulate brain metabolism and mouse behavior. […] The 3H2O was then measured by liquid scintillation counting (Tri-Carb 4810 TR, PerkinElmer). […]

Assay [6] concerns mouse primary cortical neurons. Description: NADPH/NADP upon excitotoxic stimuli. The assay is classed as cell-based. Particulars: glutamate 100 μM 10 minutes, then inhibitor 0.01 μM 24 hours. The method, then: Neurons were then washed and further incubated in culture medium with the PFKFB3 inhibitors for 24 hours. A colorimetric NADP/NADPH assay kit (Abcam) was used. Cells were resuspended in 500 μl of NADP/NADPH extraction buffer, vortexed and centrifuged at 14,000 rpm for 5 minutes to remove insoluble material. The supernatant was used for NADPH +plus NADP+ measurement. NADPH was determined in 200 μl of the supernatant, after […] 60° C. for 30 minutes to decompose NADP+. Actual NADP and NADPH+ concentrations were calculated by extrapolating values to a NADPH standard curve (0-100 pmol/well).

Entries after “also recorded” stand apart in the source; their conditions may differ.

For `Cc1noc(C)c1Cn1cc(C#N)c2cc(Oc3ccc(NC(=O)[C@@H]4CCCN4)cc3)ccc21` [AZ67, (2S)-N-[4-({3-cyano-1-[(3,5-dimethyl-1,2-oxazol-4-yl)methyl]-1H-indol-5-yl}oxy)phenyl]pyrrolidine-2-carboxamide], in assay [1] (FIG. 5), the “apoptotic neuronal death increased by glutamate and NMDA” value is reported as “significantly prevented”. Further, the “neuroprotection under PFK1-M overexpression” value in assay [1] (PFK1-M overexpression, FIGS. 6B and 6C) is reported as “abolish the neuroprotection”. The “protection of mouse primary cortical neurons from apoptosis” value in assay [1] (apoptosis induced by NMDA and glutamate, FIG. 6A) is on record as “protect”. In addition, the “lactate released (activation of glycolysis)” value in assay [2] was “fully prevented; also recorded: prevent the increase in lactate production”. Besides, the protection from apoptosis result in assay [3] (NMDA and glutamate) was “protect mouse primary cortical neurons from apoptosis”. Further, the results for the “prevention of apoptotic neuronal death” value in assay [3] (NMDA) and in assay [3] (glutamate) were 90% and 76%, respectively. The “increase in mitochondrial ROS” value with primary neurons is reported as “significantly prevented”; in assay [4], “significantly prevented the increase in mitochondrial ROS; also recorded: prevent mitochondrial ROS increase”. The “rate of glycolysis (glycolytic flux)” value in assay [5] is “reduce the excessive glycolysis to normal levels”. Also, the “NADPH oxidation / NADPH/NADP ratio” value in assay [6] is reported as “prevented; also recorded: restore NADPH/NADP ratio”.
